{
  "source": "ChEMBL document CHEMBL5465560",
  "about": "“Selectivity Literature for EUbOPEN Chemogenomic Library” (2024)",
  "key": {"[1]": {"target": "Mitogen-activated protein kinase 14 (Homo sapiens, UniProt Q16539)", "sequence (Q16539 whole entry)": "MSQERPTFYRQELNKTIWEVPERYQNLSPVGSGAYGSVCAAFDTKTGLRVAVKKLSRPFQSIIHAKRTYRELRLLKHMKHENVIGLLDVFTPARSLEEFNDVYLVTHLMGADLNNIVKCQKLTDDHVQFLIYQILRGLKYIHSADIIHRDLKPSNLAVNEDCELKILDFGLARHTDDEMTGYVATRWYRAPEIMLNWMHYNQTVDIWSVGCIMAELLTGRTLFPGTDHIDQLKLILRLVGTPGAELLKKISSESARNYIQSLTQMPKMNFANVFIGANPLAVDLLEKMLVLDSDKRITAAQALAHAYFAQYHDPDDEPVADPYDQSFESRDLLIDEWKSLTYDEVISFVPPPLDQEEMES", "settings": "at 10 µM"}, "[2]": {"target": "Serine/threonine-protein kinase Nek6 (Homo sapiens) (UniProt Q9HC98)", "sequence (Q9HC98 whole entry)": "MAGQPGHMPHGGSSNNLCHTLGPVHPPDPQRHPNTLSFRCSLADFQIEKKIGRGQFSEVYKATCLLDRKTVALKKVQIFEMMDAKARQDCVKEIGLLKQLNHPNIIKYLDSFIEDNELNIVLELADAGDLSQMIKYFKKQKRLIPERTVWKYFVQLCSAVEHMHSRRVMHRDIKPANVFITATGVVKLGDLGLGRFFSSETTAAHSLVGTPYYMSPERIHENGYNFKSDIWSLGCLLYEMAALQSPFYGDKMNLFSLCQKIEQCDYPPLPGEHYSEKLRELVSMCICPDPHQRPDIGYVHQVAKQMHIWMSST", "experiment": "Selectivity interaction (KinomeScan (DiscoverX)) EUB0001049a NEK6", "settings": "at 1 µM"}, "Insulin receptor": {"target": "Insulin receptor (Homo sapiens, UniProt P06213)", "experiment": "Selectivity interaction (Kinase panel (literature)) EUB0001199aCl INSR", "settings": "at 1 µM"}, "[3]": {"target": "ALK tyrosine kinase receptor (Homo sapiens, UniProt Q9UM73)", "experiment": "Selectivity interaction (Kinase panel (Z-LYTE Assay)) EUB0001632a ALK", "settings": "at 10 µM"}, "[4]": {"target": "Dual specificity testis-specific protein kinase 1 (Homo sapiens) (UniProt Q15569)", "sequence (Q15569 whole entry, looked up)": "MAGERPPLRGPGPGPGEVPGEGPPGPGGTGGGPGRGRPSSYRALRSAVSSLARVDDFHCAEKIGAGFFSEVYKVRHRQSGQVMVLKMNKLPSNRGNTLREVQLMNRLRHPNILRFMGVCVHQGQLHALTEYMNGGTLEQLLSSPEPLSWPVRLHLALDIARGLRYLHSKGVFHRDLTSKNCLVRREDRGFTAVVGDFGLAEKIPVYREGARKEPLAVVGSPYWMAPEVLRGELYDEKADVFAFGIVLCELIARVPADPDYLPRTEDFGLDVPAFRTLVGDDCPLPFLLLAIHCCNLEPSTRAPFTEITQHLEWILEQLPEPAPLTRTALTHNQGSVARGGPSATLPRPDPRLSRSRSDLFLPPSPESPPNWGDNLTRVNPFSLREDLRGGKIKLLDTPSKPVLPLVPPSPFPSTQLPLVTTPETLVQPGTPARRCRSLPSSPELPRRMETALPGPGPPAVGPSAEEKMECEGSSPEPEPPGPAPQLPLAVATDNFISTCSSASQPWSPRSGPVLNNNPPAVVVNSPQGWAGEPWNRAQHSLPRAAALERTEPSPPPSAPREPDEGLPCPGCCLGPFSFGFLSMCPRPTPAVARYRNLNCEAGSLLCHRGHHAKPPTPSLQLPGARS", "experiment": "Selectivity interaction (LanthaScreen Eu Kinase Binding Assay) EUB0001632a TESK1", "settings": "at 10 µM"}, "[5]": {"target": "Tyrosine-protein kinase FRK (Homo sapiens) (UniProt P42685)", "settings": "at 10 µM"}, "[6]": {"target": "Cyclin-dependent kinase 14 (Homo sapiens) (UniProt O94921)", "sequence (O94921 whole entry)": "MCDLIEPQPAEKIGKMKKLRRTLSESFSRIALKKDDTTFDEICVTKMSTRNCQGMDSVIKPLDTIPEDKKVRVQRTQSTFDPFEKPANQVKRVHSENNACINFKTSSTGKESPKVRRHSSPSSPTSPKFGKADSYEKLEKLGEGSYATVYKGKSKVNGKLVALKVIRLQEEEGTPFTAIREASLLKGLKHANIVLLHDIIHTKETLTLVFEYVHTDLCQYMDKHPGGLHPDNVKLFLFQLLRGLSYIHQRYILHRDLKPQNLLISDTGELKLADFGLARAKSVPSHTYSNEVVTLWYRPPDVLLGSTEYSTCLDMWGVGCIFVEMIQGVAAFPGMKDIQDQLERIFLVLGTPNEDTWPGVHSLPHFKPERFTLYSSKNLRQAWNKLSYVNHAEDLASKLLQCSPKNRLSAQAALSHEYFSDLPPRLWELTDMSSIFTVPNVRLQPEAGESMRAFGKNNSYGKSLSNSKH", "experiment": "Selectivity interaction (KinomeScan (DiscoverX)) EUB0000229b CDK14", "settings": "at 10 µM"}, "[7]": {"system": "Receptor-type tyrosine-protein kinase FLT3 (Homo sapiens), P36888 [UNDEFINED MUTATION]", "experiment": "Selectivity interaction (KinomeScan (DiscoverX)) EUB0000229b FLT3", "settings": "at 1 µM"}, "[8]": {"target": "Tyrosine-protein kinase Srms (Homo sapiens) (UniProt Q9H3Y6)", "sequence (Q9H3Y6 whole entry)": "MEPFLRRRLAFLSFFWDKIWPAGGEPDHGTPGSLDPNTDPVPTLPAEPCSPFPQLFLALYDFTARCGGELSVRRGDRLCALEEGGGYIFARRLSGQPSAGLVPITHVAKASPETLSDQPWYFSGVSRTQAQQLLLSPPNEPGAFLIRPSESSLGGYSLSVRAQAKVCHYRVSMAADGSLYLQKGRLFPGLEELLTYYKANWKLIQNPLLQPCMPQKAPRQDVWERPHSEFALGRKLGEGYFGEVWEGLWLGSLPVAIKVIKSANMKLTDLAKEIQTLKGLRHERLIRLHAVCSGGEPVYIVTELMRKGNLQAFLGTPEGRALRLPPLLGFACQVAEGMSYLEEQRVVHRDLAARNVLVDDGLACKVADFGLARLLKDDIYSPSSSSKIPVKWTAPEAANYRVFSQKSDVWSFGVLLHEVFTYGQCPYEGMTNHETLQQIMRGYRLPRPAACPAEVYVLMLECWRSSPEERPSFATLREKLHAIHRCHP", "experiment": "Selectivity interaction (KinomeScan (DiscoverX)) EUB0000229b SRMS", "settings": "at 10 µM"}, "[9]": {"target": "Platelet-derived growth factor receptor beta (Homo sapiens, UniProt P09619)", "sequence (P09619 whole entry)": "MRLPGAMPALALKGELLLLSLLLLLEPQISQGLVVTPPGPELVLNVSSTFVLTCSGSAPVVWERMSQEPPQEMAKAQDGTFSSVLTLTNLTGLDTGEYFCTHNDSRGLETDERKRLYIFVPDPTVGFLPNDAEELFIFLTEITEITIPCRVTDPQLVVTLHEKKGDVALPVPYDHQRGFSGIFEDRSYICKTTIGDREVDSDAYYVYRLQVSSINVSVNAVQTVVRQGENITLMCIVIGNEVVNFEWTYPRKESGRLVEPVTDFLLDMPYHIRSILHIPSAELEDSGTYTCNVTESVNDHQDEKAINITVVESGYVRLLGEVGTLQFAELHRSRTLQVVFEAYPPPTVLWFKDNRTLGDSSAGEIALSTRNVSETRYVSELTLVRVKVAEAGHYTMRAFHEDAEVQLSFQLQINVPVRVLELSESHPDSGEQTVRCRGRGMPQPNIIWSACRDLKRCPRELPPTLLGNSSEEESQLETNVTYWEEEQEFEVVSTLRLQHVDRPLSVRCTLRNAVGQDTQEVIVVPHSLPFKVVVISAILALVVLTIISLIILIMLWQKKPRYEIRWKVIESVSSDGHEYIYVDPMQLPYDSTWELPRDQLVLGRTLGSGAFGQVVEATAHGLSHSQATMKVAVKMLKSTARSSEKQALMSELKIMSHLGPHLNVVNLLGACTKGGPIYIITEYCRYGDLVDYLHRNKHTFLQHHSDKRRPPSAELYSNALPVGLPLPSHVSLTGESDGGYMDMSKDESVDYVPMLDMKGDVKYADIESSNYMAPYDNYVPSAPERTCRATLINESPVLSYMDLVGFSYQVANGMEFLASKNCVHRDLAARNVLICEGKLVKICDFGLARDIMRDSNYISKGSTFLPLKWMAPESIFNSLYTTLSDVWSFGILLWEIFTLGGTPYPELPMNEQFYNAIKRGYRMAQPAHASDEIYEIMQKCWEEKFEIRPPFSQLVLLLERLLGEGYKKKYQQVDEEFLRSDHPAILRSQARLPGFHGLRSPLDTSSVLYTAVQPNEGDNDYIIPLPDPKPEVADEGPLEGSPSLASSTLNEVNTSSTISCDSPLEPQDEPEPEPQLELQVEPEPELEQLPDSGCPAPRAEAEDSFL", "experiment": "Selectivity interaction (KinomeScan (DiscoverX)) EUB0001079a PDGFRB", "settings": "at 1 µM"}, "[10]": {"target": "Ribosomal protein S6 kinase alpha-4 (Homo sapiens) (UniProt O75676)", "sequence (O75676 whole entry, looked up)": "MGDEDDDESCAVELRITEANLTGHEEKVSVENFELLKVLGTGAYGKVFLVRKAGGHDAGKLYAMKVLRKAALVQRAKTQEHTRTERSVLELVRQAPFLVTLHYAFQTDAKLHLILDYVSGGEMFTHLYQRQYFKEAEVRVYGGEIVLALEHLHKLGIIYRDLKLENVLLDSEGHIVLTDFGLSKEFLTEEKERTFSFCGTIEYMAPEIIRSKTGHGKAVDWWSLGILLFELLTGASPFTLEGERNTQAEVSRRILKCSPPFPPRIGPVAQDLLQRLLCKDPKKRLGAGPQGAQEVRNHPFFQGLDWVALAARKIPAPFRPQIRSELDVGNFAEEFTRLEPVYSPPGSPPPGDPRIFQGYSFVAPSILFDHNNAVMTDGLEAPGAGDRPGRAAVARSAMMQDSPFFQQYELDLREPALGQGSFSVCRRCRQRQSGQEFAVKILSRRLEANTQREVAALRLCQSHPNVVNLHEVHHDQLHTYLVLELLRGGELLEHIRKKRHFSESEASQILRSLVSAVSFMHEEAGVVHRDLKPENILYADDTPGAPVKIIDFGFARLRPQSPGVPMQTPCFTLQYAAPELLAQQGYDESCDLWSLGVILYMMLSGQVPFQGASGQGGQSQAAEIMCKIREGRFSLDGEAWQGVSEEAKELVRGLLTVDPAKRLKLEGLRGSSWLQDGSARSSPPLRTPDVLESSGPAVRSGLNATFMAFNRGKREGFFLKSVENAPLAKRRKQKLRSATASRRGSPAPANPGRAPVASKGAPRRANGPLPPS", "experiment": "Selectivity interaction (KinomeScan (DiscoverX)) EUB0000655a RPS6KA4", "settings": "at 10 µM"}, "D(1A) dopamine receptor": {"target": "D(1A) dopamine receptor (Homo sapiens, UniProt P21728)", "sequence (P21728 whole entry)": "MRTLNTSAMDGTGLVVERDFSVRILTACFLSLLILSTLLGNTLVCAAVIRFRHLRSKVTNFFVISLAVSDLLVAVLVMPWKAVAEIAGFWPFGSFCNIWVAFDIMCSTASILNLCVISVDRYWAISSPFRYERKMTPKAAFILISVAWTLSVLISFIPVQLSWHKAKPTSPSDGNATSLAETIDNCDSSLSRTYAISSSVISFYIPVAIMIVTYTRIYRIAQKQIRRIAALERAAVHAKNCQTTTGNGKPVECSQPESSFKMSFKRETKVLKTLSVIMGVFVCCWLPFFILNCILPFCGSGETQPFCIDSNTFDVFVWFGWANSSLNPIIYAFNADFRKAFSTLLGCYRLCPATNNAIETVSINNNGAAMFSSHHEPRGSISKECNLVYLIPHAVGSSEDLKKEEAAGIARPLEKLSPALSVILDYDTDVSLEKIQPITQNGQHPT", "experiment": "Selectivity interaction (GPCR panel (PDSP screen)) EUB0000311b DRD1", "settings": "at 10 µM"}, "[11]": {"target": "T1, Dual specificity mitogen-activated protein kinase kinase 4 (Homo sapiens) (UniProt P45985)", "T1 sequence (whole entry)": "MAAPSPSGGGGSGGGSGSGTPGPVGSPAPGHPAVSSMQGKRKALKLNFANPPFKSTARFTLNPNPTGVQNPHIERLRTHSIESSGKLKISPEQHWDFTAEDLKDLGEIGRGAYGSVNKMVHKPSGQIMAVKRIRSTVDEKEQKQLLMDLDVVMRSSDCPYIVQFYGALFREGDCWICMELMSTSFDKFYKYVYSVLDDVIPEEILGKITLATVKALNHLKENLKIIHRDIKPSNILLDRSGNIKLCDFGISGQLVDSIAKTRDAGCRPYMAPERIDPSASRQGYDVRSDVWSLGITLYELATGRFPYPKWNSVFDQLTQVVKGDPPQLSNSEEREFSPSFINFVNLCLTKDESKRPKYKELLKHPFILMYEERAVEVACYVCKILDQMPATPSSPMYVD", "experiment": "Selectivity interaction (ActivX KiNativ screen (ex vivo kinase selectivity in human PBMCs)) EUB0001619a MAP2K4", "assay_type": "cell-based", "settings": "PBMC, at 1 µM"}, "[12]": {"target": "Myosin light chain kinase 2, skeletal/cardiac muscle (Homo sapiens) (UniProt Q9H1R3)", "experiment": "Selectivity interaction (KinomeScan (DiscoverX)) EUB0001619a MYLK2", "settings": "at 1 µM"}, "[13]": {"target": "Casein kinase I isoform epsilon (Homo sapiens, UniProt P49674)", "sequence (P49674 whole entry, looked up, canonical isoform)": "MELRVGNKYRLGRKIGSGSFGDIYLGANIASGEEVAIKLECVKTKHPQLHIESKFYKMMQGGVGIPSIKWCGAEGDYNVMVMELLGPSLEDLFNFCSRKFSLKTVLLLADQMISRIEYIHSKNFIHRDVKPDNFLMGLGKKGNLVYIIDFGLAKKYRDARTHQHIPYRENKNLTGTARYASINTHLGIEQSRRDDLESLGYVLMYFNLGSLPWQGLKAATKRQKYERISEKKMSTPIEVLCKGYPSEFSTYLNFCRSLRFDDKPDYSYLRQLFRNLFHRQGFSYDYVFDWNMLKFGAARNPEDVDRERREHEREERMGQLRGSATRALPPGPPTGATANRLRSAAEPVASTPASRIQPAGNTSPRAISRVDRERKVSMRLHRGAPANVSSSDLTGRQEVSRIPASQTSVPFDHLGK", "experiment": "Selectivity interaction (KinomeScan (DiscoverX)) EUB0001619a CSNK1E", "settings": "at 1 µM"}, "[14]": {"target": "Mitogen-activated protein kinase 6 (Homo sapiens) (UniProt Q16659)", "experiment": "Selectivity interaction (KinomeScan (DiscoverX)) EUB0001619a MAPK6", "settings": "at 1 µM"}, "[15]": {"target": "T2, Ephrin type-A receptor 8 (Homo sapiens) (UniProt P29322)", "T2 sequence (whole entry)": "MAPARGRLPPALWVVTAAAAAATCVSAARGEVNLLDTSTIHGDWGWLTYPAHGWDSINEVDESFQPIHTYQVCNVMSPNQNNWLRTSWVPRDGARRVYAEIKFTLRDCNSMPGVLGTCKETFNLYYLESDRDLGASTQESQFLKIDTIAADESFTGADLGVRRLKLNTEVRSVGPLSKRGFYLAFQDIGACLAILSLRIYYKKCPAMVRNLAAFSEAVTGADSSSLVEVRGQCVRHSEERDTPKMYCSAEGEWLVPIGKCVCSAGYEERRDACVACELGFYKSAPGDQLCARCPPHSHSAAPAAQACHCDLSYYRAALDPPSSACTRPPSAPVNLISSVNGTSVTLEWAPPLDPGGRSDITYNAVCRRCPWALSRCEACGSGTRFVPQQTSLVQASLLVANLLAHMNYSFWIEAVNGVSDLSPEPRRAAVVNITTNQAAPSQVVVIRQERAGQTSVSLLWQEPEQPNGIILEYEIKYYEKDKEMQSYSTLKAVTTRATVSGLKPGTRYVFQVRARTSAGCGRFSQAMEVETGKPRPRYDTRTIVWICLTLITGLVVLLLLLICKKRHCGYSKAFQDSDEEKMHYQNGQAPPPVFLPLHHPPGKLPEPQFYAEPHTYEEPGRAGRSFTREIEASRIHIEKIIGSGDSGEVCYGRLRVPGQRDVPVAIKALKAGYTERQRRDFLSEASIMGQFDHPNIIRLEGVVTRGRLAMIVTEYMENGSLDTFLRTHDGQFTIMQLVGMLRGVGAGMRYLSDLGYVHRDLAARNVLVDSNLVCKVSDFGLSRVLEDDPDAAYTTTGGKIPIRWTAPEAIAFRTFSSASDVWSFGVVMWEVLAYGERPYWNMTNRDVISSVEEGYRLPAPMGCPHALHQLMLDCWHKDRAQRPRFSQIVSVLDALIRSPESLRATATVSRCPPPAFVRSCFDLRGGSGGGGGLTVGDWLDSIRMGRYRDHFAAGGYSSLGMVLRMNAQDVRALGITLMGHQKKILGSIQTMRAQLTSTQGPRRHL", "experiment": "Selectivity interaction (KinomeScan (DiscoverX)) EUB0000618a EPHA8", "settings": "at 10 µM"}},
  "data": [
    {"smiles": "Cc1cc([C@@H](C)Nc2ccccc2C(=O)O)c2nc(N3CCOCC3)cc(=O)n2c1", "note": "[AZD-6482]", "values": [
      {"measurement": "% of control", "setting": "[1]", "result": 97, "unit": "%"}
    ]},
    {"smiles": "COc1cc(Nc2nc(C)cc(-c3cnn4nc(OC)ccc34)n2)cc(C(F)(F)F)c1", "values": [
      {"measurement": "% of control", "setting": "[2]", "result": 89, "unit": "%"}
    ]},
    {"smiles": "CN1Cc2nccc(-c3cn(C)nc3-c3ccc(F)cc3)c2C1=O", "values": [
      {"measurement": "% of inhibition", "setting": "Insulin receptor", "result": 3, "unit": "%"}
    ]},
    {"smiles": "Cn1cc(-n2cnc3c(NCc4nc5cc(Cl)c(Cl)cc5[nH]4)nc(N4CCOCC4)nc32)cn1", "values": [
      {"measurement": "% of control", "setting": "[3]", "result": -0.105, "unit": "%"},
      {"measurement": "% of inhibition", "setting": "[4]", "result": -5.55, "unit": "%"}
    ]},
    {"smiles": "COCC(=O)NC/C=C/c1ccc2ncnc(Nc3ccc(Oc4ccc(C)nc4)c(C)c3)c2c1", "note": "[CP-724714]", "values": [
      {"measurement": "% of control", "setting": "[5]", "result": 100, "unit": "%"}
    ]},
    {"smiles": "COc1cc(N(C)c2ccnc3ccc(C(F)(F)F)cc23)cc(OC)c1OC", "values": [
      {"measurement": "% binding", "setting": "[6]", "result": 92, "unit": "%"},
      {"measurement": "% binding", "setting": "[7]", "result": 100, "unit": "%"},
      {"measurement": "% binding", "setting": "[8]", "result": 60, "unit": "%"}
    ]},
    {"smiles": "Nc1cnc(N2CCc3cc(S(=O)(=O)Nc4c(F)cc(Cl)cc4F)cc(N4CCCC4=O)c32)nc1", "note": "[TP-020n]", "values": [
      {"measurement": "% of control", "setting": "[9]", "result": 100, "unit": "%"}
    ]},
    {"smiles": "CN(C)CCOc1ccc(-c2nc(-c3ccncc3)c(-c3ccc4c(c3)CC/C4=N\\O)[nH]2)cc1", "values": [
      {"measurement": "% of control", "setting": "[10]", "result": 81, "unit": "%"}
    ]},
    {"smiles": "CCc1ccccc1C(=O)Nc1n[nH]c2c(C)c(F)c(C3C(C#N)=C(C)N(C)C(C)=C3C#N)cc12", "note": "[BAY-3827]", "values": [
      {"measurement": "% of inhibition", "setting": "D(1A) dopamine receptor", "result": 67.4, "unit": "%"}
    ]},
    {"smiles": "N#Cc1cccc(-c2c[nH]c3ncnc(N4CCOCC4)c23)c1", "values": [
      {"measurement": "% of inhibition", "setting": "[11]", "result": 19, "unit": "%"},
      {"measurement": "% of control", "setting": "[12]", "result": 92, "unit": "%"},
      {"measurement": "% of control", "setting": "[13]", "result": 75, "unit": "%"},
      {"measurement": "% of control", "setting": "[14]", "result": 100, "unit": "%"}
    ]},
    {"smiles": "O[C@H]1CC[C@H](Nc2ncc3nc(Nc4c(F)cc(F)cc4F)n([C@H]4CCOC4)c3n2)CC1", "values": [
      {"measurement": "% of control", "setting": "[15]", "result": 72, "unit": "%"}
    ]}
  ]
}
